Read-outs that look alike come from different tables or passages of the source.
Biological target: T1, Cbl-B (Homo sapiens, UniProt Q13191)
T1 construct: MSD-Based Assay for Degradation of Cbl-B in THP-1 Cells; endogenous in cells; host or cells: THP-1 (title) / Jurkat (protocol text)
Test: MSD-based assay for degradation of Cbl-B in THP-1 cells
Assay type: cell-based
Procedure, shortened: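 THP-1 cells were treated with compound for 24 h at 37 °C. Cbl-B in lysates was quantified by MSD sandwich immunoassay, with anti-Cbl-B capture antibody at 1 ug/mL and SULFO-TAG anti-rabbit detection. Maximal degradation (Dmax) was binned as A >70%, B 50–70%, C 30–50%, D <30%.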

[1] = Cbl-B degradation, Jurkat cells seeded (heading: THP-1 cells), 24 hours incubation, MSD readout
[2] = Cbl-B degradation, Jurkat cells seeded (heading: THP-1 cells), 24 hours incubation, MSD readout, read-out: Dmax

T1 sequence (Q13191 whole entry): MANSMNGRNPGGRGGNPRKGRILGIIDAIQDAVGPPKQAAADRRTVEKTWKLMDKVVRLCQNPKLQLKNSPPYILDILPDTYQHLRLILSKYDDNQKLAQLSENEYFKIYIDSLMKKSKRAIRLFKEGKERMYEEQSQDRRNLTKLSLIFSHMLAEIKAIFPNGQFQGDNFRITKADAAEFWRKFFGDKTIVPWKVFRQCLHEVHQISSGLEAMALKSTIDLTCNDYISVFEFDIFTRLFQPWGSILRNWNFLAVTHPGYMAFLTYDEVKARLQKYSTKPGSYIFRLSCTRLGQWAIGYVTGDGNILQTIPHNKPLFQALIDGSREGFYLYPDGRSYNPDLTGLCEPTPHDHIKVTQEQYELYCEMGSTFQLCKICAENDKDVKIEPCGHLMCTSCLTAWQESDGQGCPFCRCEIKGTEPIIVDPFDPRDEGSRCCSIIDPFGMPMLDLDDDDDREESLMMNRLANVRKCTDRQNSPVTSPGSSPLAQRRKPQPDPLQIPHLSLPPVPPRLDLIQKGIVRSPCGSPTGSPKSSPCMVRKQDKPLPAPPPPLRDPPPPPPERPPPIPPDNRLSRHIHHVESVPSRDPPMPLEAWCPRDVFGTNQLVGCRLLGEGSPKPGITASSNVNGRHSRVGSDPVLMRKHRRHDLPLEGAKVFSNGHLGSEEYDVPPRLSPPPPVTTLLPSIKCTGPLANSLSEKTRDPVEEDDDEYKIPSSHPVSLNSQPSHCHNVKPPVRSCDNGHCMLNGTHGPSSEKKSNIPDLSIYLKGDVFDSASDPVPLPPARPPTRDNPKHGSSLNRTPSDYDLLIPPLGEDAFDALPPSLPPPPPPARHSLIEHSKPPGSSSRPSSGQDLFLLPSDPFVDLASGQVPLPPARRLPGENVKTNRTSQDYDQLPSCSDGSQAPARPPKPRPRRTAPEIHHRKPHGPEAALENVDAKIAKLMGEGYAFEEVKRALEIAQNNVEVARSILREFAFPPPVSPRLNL

Compound	DC50 [1] [nM]	Dmax [2] [%]	Dmax (THP-1) [%]
Cn1cnnc1[C@@H](c1cccc(-n2cc3c(C(F)(F)F)cc(CN4CCC(C5CCN(C(=O)c6ccc(N7CCN(c8ccc9c(c8)CN([C@H]8CCC(=O)NC8=O)C9=O)CC7)cc6)CC5)CC4)cn3c2=O)c1)C1CCC1 (single isomer, unassigned) [Compound 162]	< 30	> 70	–
Cn1cnnc1[C@@H](c1cccc(-n2cc3c(C(F)(F)F)cc(CN4CCC[C@@H](OC5CCN(C(=O)c6ccc(N7CCN(c8ccc9c(c8)CN([C@@H]8CCC(=O)NC8=O)C9=O)CC7)cc6)CC5)C4)cn3c2=O)c1)C1CCC1 (single isomer, unassigned) [Compound 171]	< 30	50 to 70	–
Cn1cnnc1[C@@H](c1cccc(-n2cc3c(C(F)(F)F)cc(CN4CCC[C@@H](OC5CCN(C(=O)c6ccc(N7CCN(c8ccc9c(c8)CN([C@H]8CCC(=O)NC8=O)C9=O)CC7)cc6)CC5)C4)cn3c2=O)c1)C1CCC1 (single isomer, unassigned) [Compound 172]	< 30	> 70	–
Cn1cnnc1[C@@H](c1cccc(-n2cc3c(C(F)(F)F)cc(CN4CCC(OCCOCc5ccc(CC6CCN(c7ccc8c(c7)CN([C@@H]7CCC(=O)NC7=O)C8=O)CC6)cc5)CC4)cn3c2=O)c1)C1CCC1 (single isomer, unassigned) [Compound 173]	1000 to 10000	–	30 to 50
Cn1cnnc1[C@@H](c1cccc(-n2cc3c(C(F)(F)F)cc(CN4CCC(OCCOCc5ccc(CC6CCN(c7ccc8c(c7)CN([C@H]7CCC(=O)NC7=O)C8=O)CC6)cc5)CC4)cn3c2=O)c1)C1CCC1 (single isomer, unassigned) [Compound 174]	< 30	> 70	–
Cn1cnnc1[C@@H](c1cccc(-n2cc3c(C(F)(F)F)cc(CN4CCC(CC(=O)N5CCC(C6CCN(c7ccc8c(c7)CN([C@@H]7CCC(=O)NC7=O)C8=O)CC6)CC5)CC4)cn3c2=O)c1)C1CCC1 (single isomer, unassigned) [Compound 177]	300 to 1000	30 to 50	–
Cn1cnnc1[C@@H](c1cccc(-n2cc3c(C(F)(F)F)cc(CN4CCC(CC(=O)N5CCC(C6CCN(c7ccc8c(c7)CN([C@H]7CCC(=O)NC7=O)C8=O)CC6)CC5)CC4)cn3c2=O)c1)C1CCC1 (single isomer, unassigned) [Compound 178]	< 30	> 70	–
CN(CCC1CCN(Cc2cc(C(F)(F)F)c3cn(-c4cccc([C@H](c5nncn5C)C5CCC5)c4)c(=O)n3c2)CC1)C(=O)c1ccc(N2CCN(c3ccc4c(c3)CN([C@@H]3CCC(=O)NC3=O)C4=O)CC2)cc1 (single isomer, unassigned) [Compound 185]	30 to 300	50 to 70	–
CN(CCC1CCN(Cc2cc(C(F)(F)F)c3cn(-c4cccc([C@H](c5nncn5C)C5CCC5)c4)c(=O)n3c2)CC1)C(=O)c1ccc(N2CCN(c3ccc4c(c3)CN([C@H]3CCC(=O)NC3=O)C4=O)CC2)cc1 (single isomer, unassigned) [Compound 186]	< 30	> 70	–
Cn1cnnc1[C@@H](c1cccc(-n2cc3c(C(F)(F)F)cc(CN4CCC[C@H](OCc5ccc(CC6CCN(c7ccc8c(c7)CN([C@@H]7CCC(=O)NC7=O)C8=O)CC6)cc5)C4)cn3c2=O)c1)C1CCC1 (single isomer, unassigned) [Compound 187]	> 10000	–	–
Cn1cnnc1[C@@H](c1cccc(-n2cc3c(C(F)(F)F)cc(CN4CCC[C@H](OCc5ccc(CC6CCN(c7ccc8c(c7)CN([C@H]7CCC(=O)NC7=O)C8=O)CC6)cc5)C4)cn3c2=O)c1)C1CCC1 (single isomer, unassigned) [Compound 188]	300 to 1000	–	–
Cn1cnnc1[C@@H](c1cccc(N2Cc3c(cc(CN4CCC[C@H](OCc5ccc(CC6CCN(c7ccc8c(c7)CN([C@@H]7CCC(=O)NC7=O)C8=O)CC6)cc5)C4)cc3C(F)(F)F)C2=O)c1)C1CCC1 (single isomer, unassigned) [Compound 189]	> 10000	< 30	–
Cn1cnnc1[C@@H](c1cccc(-n2cc3c(C(F)(F)F)cc(CN4CCC[C@@H](OCc5ccc(CC6CCN(c7ccc8c(c7)CN([C@H]7CCC(=O)NC7=O)C8=O)CC6)cc5)C4)cn3c2=O)c1)C1CCC1 (single isomer, unassigned) [Compound 192]	1000 to 10000	–	–
Cn1cnnc1[C@@H](c1cccc(N2Cc3c(cc(CN4CCC[C@@H](OCc5ccc(CC6CCN(c7ccc8c(c7)CN([C@@H]7CCC(=O)NC7=O)C8=O)CC6)cc5)C4)cc3C(F)(F)F)C2=O)c1)C1CCC1 (single isomer, unassigned) [Compound 193]	> 10000	< 30	–
Cn1cnnc1[C@@H](c1cccc(N2Cc3c(cc(CN4CCC[C@@H](OCc5ccc(CC6CCN(c7ccc8c(c7)CN([C@H]7CCC(=O)NC7=O)C8=O)CC6)cc5)C4)cc3C(F)(F)F)C2=O)c1)C1CCC1 (single isomer, unassigned) [Compound 194]	30 to 300	30 to 50	–
Cn1cnnc1[C@@H](c1cccc(-n2cc3c(C(F)(F)F)cc(CN4CCC[C@H](OC5CCN(C(=O)c6ccc(N7CCN(c8ccc9c(c8)CN([C@@H]8CCC(=O)NC8=O)C9=O)CC7)cc6)CC5)C4)cn3c2=O)c1)C1CCC1 (single isomer, unassigned) [Compound 195]	30 to 300	50 to 70	–
Cn1cnnc1[C@@H](c1cccc(-n2cc3c(C(F)(F)F)cc(CN4CCC[C@H](OC5CCN(C(=O)c6ccc(N7CCN(c8ccc9c(c8)CN([C@H]8CCC(=O)NC8=O)C9=O)CC7)cc6)CC5)C4)cn3c2=O)c1)C1CCC1 (single isomer, unassigned) [Compound 196]	< 30	> 70	–
CN(CCN(C)C(=O)c1cc(C(F)(F)F)c2cn(-c3cccc([C@H](c4nncn4C)C4CCC4)c3)c(=O)n2c1)C(=O)c1ccc(C2CCN(c3ccc4c(c3)CN([C@@H]3CCC(=O)NC3=O)C4=O)CC2)cc1 (single isomer, unassigned) [Compound 197]	> 10000	< 30	–
CN(CCN(C)C(=O)c1cc(C(F)(F)F)c2cn(-c3cccc([C@H](c4nncn4C)C4CCC4)c3)c(=O)n2c1)C(=O)c1ccc(C2CCN(c3ccc4c(c3)CN([C@H]3CCC(=O)NC3=O)C4=O)CC2)cc1 (single isomer, unassigned) [Compound 198]	> 10000	< 30	–
CN(CC1CCN(Cc2cc(C(F)(F)F)c3cn(-c4cccc([C@H](c5nncn5C)C5CCC5)c4)c(=O)n3c2)CC1)C(=O)c1ccc(C2CCN(c3ccc4c(c3)CN([C@@H]3CCC(=O)NC3=O)C4=O)CC2)cc1 (single isomer, unassigned) [Compound 199]	30 to 300	30 to 50	–
CN(CC1CCN(Cc2cc(C(F)(F)F)c3cn(-c4cccc([C@H](c5nncn5C)C5CCC5)c4)c(=O)n3c2)CC1)C(=O)c1ccc(C2CCN(c3ccc4c(c3)CN([C@H]3CCC(=O)NC3=O)C4=O)CC2)cc1 (single isomer, unassigned) [Compound 200]	< 30	> 70	–
Cn1cnnc1[C@@H](c1cccc(-n2cc3c(C(F)(F)F)cc(CN4CCN(C(=O)Cc5ccc(C6CCN(c7ccc8c(c7)CN([C@@H]7CCC(=O)NC7=O)C8=O)CC6)cc5)CC4)cn3c2=O)c1)C1CCC1 (single isomer, unassigned) [Compound 201]	30 to 300	30 to 50	–
Cn1cnnc1[C@@H](c1cccc(-n2cc3c(C(F)(F)F)cc(CN4CCN(C(=O)Cc5ccc(C6CCN(c7ccc8c(c7)CN([C@H]7CCC(=O)NC7=O)C8=O)CC6)cc5)CC4)cn3c2=O)c1)C1CCC1 (single isomer, unassigned) [Compound 202]	< 30	> 70	–
Cn1cnnc1CC1(c2cccc(-n3cc4c(C(F)(F)F)cc(CN5CCC(OCc6ccc(C7CCN(c8ccc9c(c8)CN([C@@H]8CCC(=O)NC8=O)C9=O)CC7)cc6)CC5)cn4c3=O)c2)COC1 (single isomer, unassigned) [Compound 205]	30 to 300	30 to 50	–
Cn1cnnc1CC1(c2cccc(-n3cc4c(C(F)(F)F)cc(CN5CCC(OCc6ccc(C7CCN(c8ccc9c(c8)CN([C@H]8CCC(=O)NC8=O)C9=O)CC7)cc6)CC5)cn4c3=O)c2)COC1 (single isomer, unassigned) [Compound 206]	30 to 300	50 to 70	–
Cn1cnnc1[C@@H](c1cccc(-n2cc3c(C(F)(F)F)cc(CN4CCC(OCc5cccc(CN6CCN(c7ccc8c(c7)CN([C@@H]7CCC(=O)NC7=O)C8=O)CC6)c5)CC4)cn3c2=O)c1)C1CCC1 (single isomer, unassigned) [Compound 207]	> 10000	< 30	–
Cn1cnnc1[C@@H](c1cccc(-n2cc3c(C(F)(F)F)cc(CN4CCC(OCc5cccc(CN6CCN(c7ccc8c(c7)CN([C@H]7CCC(=O)NC7=O)C8=O)CC6)c5)CC4)cn3c2=O)c1)C1CCC1 (single isomer, unassigned) [Compound 208]	> 10000	< 30	–
Cn1cnnc1[C@@H](c1cccc(-n2cc3c(C(F)(F)F)cc(CN4CCN(c5ccc(C(=O)N6CCC(C7CCN(c8ccc9c(c8)CN([C@@H]8CCC(=O)NC8=O)C9=O)CC7)CC6)cc5)CC4)cn3c2=O)c1)C1CCC1 (single isomer, unassigned) [Compound 209]	1000 to 10000	< 30	–
Cn1cnnc1[C@@H](c1cccc(-n2cc3c(C(F)(F)F)cc(CN4CCN(c5ccc(C(=O)N6CCC(C7CCN(c8ccc9c(c8)CN([C@H]8CCC(=O)NC8=O)C9=O)CC7)CC6)cc5)CC4)cn3c2=O)c1)C1CCC1 (single isomer, unassigned) [Compound 210]	< 30	> 70	–
CN(CCN(C)C(=O)c1ccc(C2CCN(c3ccc4c(c3)CN([C@@H]3CCC(=O)NC3=O)C4=O)CC2)cc1)Cc1cc(C(F)(F)F)c2cn(-c3cccc([C@H](c4nncn4C)C4CCC4)c3)c(=O)n2c1 (single isomer, unassigned) [Compound 211]	> 10000	< 30	–

Source: patent publication US20250340552A1, “COMPOUNDS, COMPOSITIONS AND METHODS OF TREATING DISORDERS” (HOTSPOT THERAPEUTICS, INC., priority 2022, published 2025)
